The text below walks through data of US12533310B2, “Fragrance or flavor composition” (Takasago International Corporation, priority 2019, dated 2026).

For experiment [1], the system named is cells not engineered to express the olfactory receptors. Kind of experiment: Mock test of the luciferase reporter gene assay. The class given is cell-based, human. Here is the method: (§1) Each human olfactory receptor gene expression vector (0.05 μg), RTP1S vector (0.01 μg), firefly luciferase vector pGL4.29 containing a cAMP response element promoter (Promega, 0.01 μg) and Renilla luciferase vector pGL4.74 containing a thymidine kinase promoter (Promega, 0.005 μg) were dissolved in 10 μL of Opti-MEMI (gibco) to give a gene solution (for one well). HEK293T cells were seeded in 100 μL volumes into 96-well plates (Biocoat, Corning) at a cell density reaching confluence after 24 hours, and the gene solutions were added to the respective wells to cause gene transfer into the cells by lipofection techniques in accordance with the usage of Lipofectamine 3000, followed by culture at 37° C. under a 5% carbon dioxide atmosphere for 24 hours.
(§2) After removal of the culture solutions, an odorous substance serving as an analyte, which had been prepared at a given concentration with CD293 (gibco) medium (supplemented with […] L-glutamine), was added in 50 μL volumes to stimulate the cells for 3 hours, followed by luciferase activity measurement in accordance with the usage of a Dual-Luciferase Reporter Assay System (Promega). The response intensity of each olfactory receptor polypeptide was expressed as a fold increase value, which was determined by dividing the luciferase activity generated upon stimulation with the odorous substance by the luciferase activity generated in a test system not containing the odorous substance.
(§3) The cells engineered to express human olfactory receptors OR2C1 and OR4Q3 were used to measure the response of these receptors to various concentrations of 1-octen-3-one by the luciferase reporter gene assay.

In experiment [2] the target is T1, human olfactory receptor OR2C1 (Homo sapiens, UniProt O95371).
T1 construct: N-terminal 20 amino acid residues of bovine rhodopsin (Rho tag); expressed in transfected cells; host or cells: HEK293T
T1 sequence (O95371 1-312): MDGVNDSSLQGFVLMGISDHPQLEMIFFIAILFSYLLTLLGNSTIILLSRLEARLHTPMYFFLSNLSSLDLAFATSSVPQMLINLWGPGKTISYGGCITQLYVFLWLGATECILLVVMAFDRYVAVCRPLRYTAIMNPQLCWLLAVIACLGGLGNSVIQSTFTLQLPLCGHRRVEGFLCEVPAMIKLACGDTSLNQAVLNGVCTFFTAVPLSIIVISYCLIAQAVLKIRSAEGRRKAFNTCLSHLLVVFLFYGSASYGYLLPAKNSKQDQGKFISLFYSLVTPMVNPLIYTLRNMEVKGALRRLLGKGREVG
Kind of experiment: Luciferase reporter gene assay, response of OR2C1 to odorous substances. It counts as cell-based. The following applies: various concentrations; cells stimulated 3 hours; FIGS. 1 and 3.
Source text: Human olfactory receptor genes were obtained by PCR cloning with Human Genomic DNA: Female (Promega) on the basis of their sequence information registered in GenBank. Into pME18S vectors, the N-terminal 20 amino acid residues of bovine rhodopsin were integrated and the resulting human olfactory receptor genes were integrated respectively downstream thereof to obtain human olfactory receptor gene expression vectors. […]
as §2, with “substance. […]” for “substance.”
Background: A reporter such as luciferase makes a cellular process visible.

Experiment [3] concerns the target T2, human olfactory receptor OR4Q3 (Homo sapiens, UniProt Q8NH05).
T2 construct: N-terminal 20 amino acid residues of bovine rhodopsin (Rho tag); expressed in transfected cells; host or cells: HEK293T
T2 sequence (Q8NH05 1-313): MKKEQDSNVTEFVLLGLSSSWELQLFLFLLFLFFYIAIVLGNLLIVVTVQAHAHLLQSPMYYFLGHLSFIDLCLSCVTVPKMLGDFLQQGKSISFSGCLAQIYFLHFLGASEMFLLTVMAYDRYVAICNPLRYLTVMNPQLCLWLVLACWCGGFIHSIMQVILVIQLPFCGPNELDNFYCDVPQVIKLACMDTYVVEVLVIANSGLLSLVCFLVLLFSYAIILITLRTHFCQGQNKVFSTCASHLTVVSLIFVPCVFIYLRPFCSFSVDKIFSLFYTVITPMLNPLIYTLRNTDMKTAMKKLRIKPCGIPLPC
In words: Luciferase reporter gene assay, response of OR4Q3 to odorous substances. The class given is cell-based. The following applies: various concentrations; cells stimulated 3 hours; FIGS. 2, 4, 5, 6. Here is the method: Human olfactory receptor genes were obtained by PCR cloning with Human Genomic DNA: Female (Promega) on the basis of their sequence information registered in GenBank. Into pME18S vectors, the N-terminal 20 amino acid residues of bovine rhodopsin were integrated and the resulting human olfactory receptor genes were integrated respectively downstream thereof to obtain human olfactory receptor gene expression vectors.
as §1, §2, §3
According to the same procedure as shown in Example 1, the cells engineered to express human olfactory receptors OR2C1 and OR4Q3 were used to measure the response of these receptors to various concentrations of 1,5-octadien-3-one by the luciferase reporter gene assay.
According to the same procedure as shown in Example 1, the cells engineered to express human olfactory receptor OR4Q3 were used to measure the response of this receptor to various concentrations of 1-octen-3-ol by the luciferase reporter gene assay. […]

A further experiment addresses T3, OR2C1 (Homo sapiens, UniProt O95371).
T3 construct: N-terminal 20 amino acid residues of bovine rhodopsin (Rho tag); expressed in transfected cells; host or cells: HEK293T
T3 sequence (O95371 1-312): T1 sequence (O95371 1-312)
In words: Suppressive effect of offensive odor-suppressing materials on the response of OR2C1. It counts as cell-based. The conditions noted are these: for suppressive effect on the response of OR2C1 to 1-octen-3-one: mixed at various concentrations with 30 μM 1-octen-3-one, response without material set to 100, FIGS. 7 and 8; for suppressive effect on the response of OR2C1 to trans-2-nonenal: mixed at various concentrations with 60 μM trans-2-nonenal, FIGS. 9 and 10; for suppressing the response of OR2C1: odorous substance not stated. Here is the method:
as §2
According to the same procedure as shown in Example 1, offensive odor-suppressing materials 2-methyl-4-(2,2,3-trimethylcyclopent-3-enyl)but-2-en-1-ol (also known as 2-methyl-4-(2,2,3-trimethyl-3-cyclopentenyl)-2-buten-1-ol) (Hindinol®) and 1-(2,2,6-trimethylcyclohexyl)hexan-3-ol (Dextramber®) were each mixed at various concentrations with 30 μM 1-octen-3-one, and the cells engineered to express OR2C1 were used to measure the response of this receptor to 1-octen-3-one. The ratio of the fold increase value obtained in the test using the offensive odor-suppressing materials was determined assuming that the fold increase value obtained in the test without mixing the offensive odor-suppressing materials was set to 100.
According to the same procedure as shown in Example 5, offensive odor-suppressing materials 2-methyl-4-(2,2,3-trimethylcyclopent-3-enyl)but-2-en-1-ol (Hindinol®) and 1-(2,2,6-trimethylcyclohexyl)hexan-3-ol (Dextramber®) were each mixed at various concentrations with 60 μM trans-2-nonenal, and the cells engineered to express OR2C1 were used to measure the response of this receptor to trans-2-nonenal.

The nature of experiment [4]: Sensory testing of offensive odor intensity, model odors (Example 8). On the set-up: species or system human. Here is the method: These fragrance compositions 1 to 48 were confirmed for their ability to suppress offensive odors by sensory testing. As offensive odors, the model age-related body odor, the model underarm odor and the model musty odor indicated in Tables 8 to 10 below were each diluted 100-fold and added dropwise separately in a volume of […] and fragrance compositions 1 to 48 were each added dropwise separately in a volume of 1 μl as a test substance to a cotton ball, which was then enclosed in a plastic bottle (OZO-40, Takemoto Yohki Co., Ltd., Japan). Each bottle was allowed to stand for 1 hour at room temperature to fully volatilize odor molecules in the bottle. Sensory testing was made by 10 panelists assuming that the odor intensity was set to 8 for each offensive odor when added dropwise alone, whereby the offensive odor intensity when a test substance was mixed was evaluated between 0 and 10. The resulting numerical values were used to calculate their mean value.

Experiment [5] in a line: Sensory testing of offensive odor intensity, single offensive odors (Example 7). The conditions noted are these: for Offensive odor intensity 1,5-Octadien-3-ol: 1,5-octadien-3-ol diluted 100-fold with triethyl citrate; for Offensive odor intensity 1,5-Octadien-3-ol / Offensive odor intensity 1,5-Octadien-3-one / Offensive odor intensity 1-Octen-3-ol / Offensive odor intensity 1-Octen-3-one / Offensive odor intensity Trans-2-nonenal / Offensive odor intensity Trans-2-octenal: 10 μl, test substance 1 μl, odor alone set to 8, scale 0 to 10, mean of 10 panelists; for Offensive odor intensity 1,5-Octadien-3-one: 1,5-octadien-3-one diluted 1000-fold with triethyl citrate; for Offensive odor intensity 1-Octen-3-ol: 1-octen-3-ol diluted 100-fold with triethyl citrate; for Offensive odor intensity 1-Octen-3-one: 1-octen-3-one diluted 100-fold with triethyl citrate; for suppressive effect on offensive odors (each offensive odor of Example 7): summary in words for all six offensive odors; for Offensive odor intensity Trans-2-nonenal: trans-2-nonenal diluted 1000-fold with triethyl citrate; for Offensive odor intensity Trans-2-octenal: trans-2-octenal diluted 1000-fold with triethyl citrate. Also on record: species or system human. An excerpt:
Test substances having inhibitory activity on receptor activity were confirmed for their ability to suppress offensive odors by sensory testing. As offensive odors, trans-2-nonenal diluted 1000-fold with triethyl citrate, trans-2-octenal diluted 1000-fold with triethyl citrate, 1-octen-3-one diluted 100-fold with triethyl citrate, 1,5-octadien-3-one diluted 1000-fold with triethyl citrate, 1-octen-3-ol diluted 100-fold with triethyl citrate, and 1,5-octadien-3-ol diluted 100-fold with triethyl citrate were each added dropwise separately in a volume of 10 μl and a test substance was added dropwise in a volume of 1 μl to a cotton ball, which was then enclosed in a plastic bottle (OZO-40, Takemoto Yohki Co., Ltd., Japan). Each bottle was allowed to stand for 1 hour at room temperature to fully volatilize odor molecules in the bottle. Sensory testing was made by 10 panelists assuming that the odor intensity was set to 8 for each offensive odor when added dropwise alone, whereby the offensive odor intensity when a test substance was mixed was evaluated between 0 and 10. The resulting numerical values were used to calculate their mean value.

For the compound `C=CC(=O)CC=CCC` [1,5-octadien-3-one], in experiment [1], the “response in Mock test” value was “no response was observed in a Mock test”. In experiment [2], the “response of olfactory receptor OR2C1 to the odorous substance (fold increase value)” value is given as “respond to 1,5-octadien-3-one in a concentration-dependent manner”. Further, the “response of olfactory receptor OR4Q3 to the odorous substance (fold increase value)” value in experiment [3] was “respond to 1,5-octadien-3-one in a concentration-dependent manner”.

Consider `C=CC(O)CCCCC` (stereo not drawn) [1-octen-3-ol], for which, in experiment [1], the “response in Mock test” value was “no response was observed in a Mock test”. Besides, the “response of olfactory receptor OR4Q3 to the odorous substance (fold increase value)” value in experiment [3] is recorded as “respond to 1-octen-3-ol in a concentration-dependent manner”.

Take `C=CC(=O)CCCCC` [1-octen-3-one]: the “response in Mock test” value in experiment [1] is “no response was observed in a Mock test”. For the same compound, the “response of olfactory receptor OR2C1 to the odorous substance (fold increase value)” value in experiment [2] was “respond to 1-octen-3-one in a concentration-dependent manner”. For the same compound, the “response of olfactory receptor OR4Q3 to the odorous substance (fold increase value)” value in experiment [3] was “respond to 1-octen-3-one in a concentration-dependent manner”.

As for `CC(=CCC1CC=C(C)C1(C)C)CO` (stereo not drawn) [Hindinol, 2-methyl-4-(2,2,3-trimethylcyclopent-3-enyl)but-2-en-1-ol], on OR2C1, the “suppressive effect on the response of OR2C1 to 1-octen-3-one” value is given as “reducing the response of OR2C1 to 1-octen-3-one in a concentration-dependent manner” and the “suppressive effect on the response of OR2C1 to trans-2-nonenal” value is reported as “reducing the response of OR2C1 to trans-2-nonenal in a concentration-dependent manner”. Further, in experiment [4] (model odor of Table 8 diluted 100-fold, fragrance composition 1 μl, odor alone set to 8, scale 0 to 10, mean of 10 panelists), the “Offensive odor intensity Model age-related body odor” value is “suppress the intensity of the model age-related body odor and the model underarm odor”. Besides, the “Offensive odor intensity Model underarm odor” value in experiment [4] (model odor of Table 9 diluted 100-fold, fragrance composition 1 μl, odor alone set to 8, scale 0 to 10, mean of 10 panelists) is “suppress the intensity of the model age-related body odor and the model underarm odor”.

As to `CCCC(O)CCC1C(C)CCCC1(C)C` (stereo not drawn) [Dextramber, 1-(2,2,6-trimethylcyclohexyl)hexan-3-ol], at OR2C1, the “suppressive effect on the response of OR2C1 to 1-octen-3-one” value is “reducing the response of OR2C1 to 1-octen-3-one in a concentration-dependent manner”, the “suppressive effect on the response of OR2C1 to trans-2-nonenal” value is “reducing the response of OR2C1 to trans-2-nonenal in a concentration-dependent manner” and the “suppressing the response of OR2C1” value was “suppressing the response of OR2C1”. Also, the “suppressive effect on offensive odors (each model odor of Example 8)” value in experiment [4] (summary in words for the model odors) is on record as “found to suppress each offensive odor”. Besides, in experiment [5], the “Offensive odor intensity 1,5-Octadien-3-ol” value is listed as 1.9, the “Offensive odor intensity 1,5-Octadien-3-one” value is recorded as 2.6, the “Offensive odor intensity 1-Octen-3-ol” value was found to be 2.0 and the “Offensive odor intensity 1-Octen-3-one” value came to 2.3. Also, in experiment [5], the “suppressive effect on offensive odors (each offensive odor of Example 7)” value is on record as “found to suppress each offensive odor”, the “Offensive odor intensity Trans-2-nonenal” value is reported as 2.8 and the “Offensive odor intensity Trans-2-octenal” value turned out to be 2.2.

Turning to `O=C(OCc1ccccc1)c1ccccc1O` [Benzyl salicylate, reference compound], in experiment [5], the “Offensive odor intensity 1,5-Octadien-3-ol” value was found to be 6.5, the “Offensive odor intensity 1,5-Octadien-3-one” value is 7.8, the “Offensive odor intensity 1-Octen-3-ol” value is 7.0 and the “Offensive odor intensity 1-Octen-3-one” value worked out at 7.5. For the same compound, in experiment [5], the “Offensive odor intensity Trans-2-nonenal” value is 7.9 and the “Offensive odor intensity Trans-2-octenal” value worked out at 7.5.

Turning to `O=C1CCCCCCCCCCCC(=O)OCCO1` [MUSK T, 1,4-dioxacycloheptadecane-5,17-dione], the “suppressing the response of OR2C1” value at OR2C1 is given as “suppressing the response of OR2C1”. Moreover, in experiment [5], the “Offensive odor intensity 1,5-Octadien-3-ol” value was 3.0, the “Offensive odor intensity 1,5-Octadien-3-one” value is 3.2, the “Offensive odor intensity 1-Octen-3-ol” value is listed as 3.2 and the “Offensive odor intensity 1-Octen-3-one” value was 2.8. Besides, in experiment [5], the “suppressive effect on offensive odors (each offensive odor of Example 7)” value was “found to suppress each offensive odor”, the “Offensive odor intensity Trans-2-nonenal” value is 2.9 and the “Offensive odor intensity Trans-2-octenal” value was 2.9.

Consider `C=CC(O)CC=CCC` (stereo not drawn) [1,5-octadien-3-ol], for which the “response in Mock test” value in experiment [1] is listed as “no response was observed in a Mock test”. Further, in experiment [3], the “response of olfactory receptor OR4Q3 to the odorous substance (fold increase value)” value is “respond to 1,5-octadien-3-ol in a concentration-dependent manner”.
